Experimental data: the NIST ThermoML archive (doi:10.1016/j.jct.2017.09.005)

Assays:
[1] = for vapor or sublimation pressure: Twin ebulliometer; for molar entropy: 101.33 kPa, Small sample (50 mg) DSC; for Critical density: DSC; for Critical temperature: DTA
[2] = molar heat capacity at saturation pressure; conditions: Liquid, Small sample (50 mg) DSC

Cc1ccc(C)[nH]1 [2,5-dimethyl-1H-pyrrole]
[1]
Conditions | mass density [kg/m3]
323.14 K, Liquid, Vibrating tube method | 910.8
348.13 K, Liquid, Vibrating tube method | 890.3
373.12 K, Liquid, Vibrating tube method | 867.7
398.12 K, Liquid, Vibrating tube method | 843.9
423.11 K, Liquid, Vibrating tube method | 819.6
448.11 K, Liquid, Vibrating tube method | 793.5
473.11 K, Liquid, Vibrating tube method | 766.5
498.11 K, Liquid, Vibrating tube method | 738.1
508.11 K, Liquid, Vibrating tube method | 725.6
650 K, Gas, From heat capacities measured by DSC | 144
660.8 K, Gas, From heat capacities measured by DSC | 257
661.5 K, Liquid, From heat capacities measured by DSC | 334
661.7 K, Liquid, From heat capacities measured by DSC | 299

[1], Liquid
Conditions | molar entropy [J/K/mol] | vapor or sublimation pressure [kPa]
341.46 K | – | 1.997
354.8 K | – | 3.994
360.76 K | – | 5.333
369.58 K | – | 8.007
376.17 K | – | 10.67
380 K | 263.56 | –
381.49 K | – | 13.34
386.98 K | – | 16.66
391.56 K | – | 19.93
397.58 K | – | 25.02
400 K | 275.4 | –
403.63 K | – | 31.18
409.71 K | – | 38.56
415.81 K | – | 47.35
420 K | 286.97 | –
421.96 K | – | 57.8
428.14 K | – | 70.1
434.36 K | – | 84.53
440 K | 298.28 | –
440.62 K | – | 101.35
446.89 K | – | 120.78
453.2 K | – | 143.21
459.55 K | – | 169.03
460 K | 309.34 | –
465.94 K | – | 198.49
472.36 K | – | 232.03
478.82 K | – | 270.08
480 K | 320.16 | –
500 K | 330.75 | –
520 K | 341.13 | –
540 K | 351.34 | –
560 K | 361.4 | –
580 K | 371.4 | –
600 K | 381.43 | –

Conditions | Critical density [kg/m3] | Critical temperature [K] | molar heat capacity [J/K/mol]
[1], Liquid | 288.6 | 662 | –
[2], 380 K | – | – | 227.58
[2], 400 K | – | – | 234.06
[2], 420 K | – | – | 240.2
[2], 440 K | – | – | 246
[2], 460 K | – | – | 251.53
[2], 480 K | – | – | 256.87
[2], 500 K | – | – | 262.15
[2], 520 K | – | – | 267.56
[2], 540 K | – | – | 273.45
[2], 560 K | – | – | 280.39
[2], 580 K | – | – | 289.72
[2], 600 K | – | – | 303.59

Cn1cccc1 [N-methylpyrrole]
[1]
Conditions | mass density [kg/m3]
323.14 K, Liquid, Vibrating tube method | 879.5
348.13 K, Liquid, Vibrating tube method | 854.2
373.12 K, Liquid, Vibrating tube method | 828.2
398.12 K, Liquid, Vibrating tube method | 800.7
423.11 K, Liquid, Vibrating tube method | 772.1
448.11 K, Liquid, Vibrating tube method | 741.1
582.9 K, Gas, From heat capacities measured by DSC | 137
592 K, Gas, From heat capacities measured by DSC | 201
592.7 K, Gas, From heat capacities measured by DSC | 220
593.2 K, Liquid, From heat capacities measured by DSC | 382
596.1 K, Gas, From heat capacities measured by DSC | 257
596.2 K, Liquid, From heat capacities measured by DSC | 328
596.5 K, Liquid, From heat capacities measured by DSC | 337

[1], Liquid
Conditions | molar entropy [J/K/mol]
360 K | 230.1
380 K | 239.15
400 K | 248.02
420 K | 256.74
440 K | 265.36
460 K | 273.88
480 K | 282.3
500 K | 290.66
520 K | 298.96

Conditions | Critical density [kg/m3] | Critical temperature [K] | molar heat capacity [J/K/mol]
[1], Liquid | 299.8 | 597 | –
[2], 360 K | – | – | 164.66
[2], 380 K | – | – | 170.08
[2], 400 K | – | – | 175.89
[2], 420 K | – | – | 182.02
[2], 440 K | – | – | 188.36
[2], 460 K | – | – | 194.81
[2], 480 K | – | – | 201.34
[2], 500 K | – | – | 208.14
[2], 520 K | – | – | 215.72
